Assay results: patent publication US20260048046A1, “METHOD FOR IMPROVING GROWTH PERFORMANCE IN FEEDLOT CATTLE” (Elanco US Inc., priority 2022, published 2026)

Test system: beef steers
Test: Lubabegron removal period study: carcass measures
Type: in vivo, cattle
Details: for Calculated YG / Ribeye Area / HCW / Marbling / Dressing: Lubabegron 3.5 mg/kg DM fed 56 d; for HCW: steers; for Marbling: 500 = Small; for Dressing: final liveweight with 4% shrink
Protocol: This experiment was conducted to evaluate the effect of removing lubabegron from feed for increasing intervals prior to slaughter on growth performance of steers.
Seven hundred English x Continental cross steers (initial BW=531±8.8 kg) were used in a randomized complete block design with seven treatments. Pen served as the experimental unit. […] Animals were managed as two-time replications with each replication containing five blocks (7 pens/block and 10 steers/pen). All ten blocks started and ended within 48 hours of each other. Cattle were weighed by pen using a 45,000-kg capacity pen scale (Model WI-130, Avery Weigh-Tronix LLC, Fairmont, MN; 3.66 m×21.34 m). All treatments were on feed for 71 d with harvest scheduled for 72 d. Because of an impending weather event, cattle were weighed to obtain a final BW one d early. Cattle were placed on their respective ration for the additional d and then shipped to the harvest facility the following morning.
657 head were transported to a harvest facility approximately 495 km from the research facility. Animals were scored for animal mobility using the North American Meat Institute (NAMI, 2015) scoring scale described by Edwards-Callaway et al., (2017) while in lairage. […] Experienced staff collected an ear tag number, plant identification (ID), and carcass sequence and applied a unique carcass ID. Data collected on the kill floor included HCW, instances of excessive trim (>approximately 9 kg), and prevalence of liver abscess (Brown et al., 1975). Other carcass measures were obtained via instrument grading.
Continuous variables were analyzed using the Mixed procedure of SAS (version 9.4; SAS Institute, Cary, NC). Block served as a random effect whereas treatment was fixed. Initial body weight was used to describe the uniformity of cattle randomized to treatment and used as a covariate when appropriate. Data were calculated with deads and removals excluded. Linear and quadratic effects of lubabegron removal were conducted as were individual comparisons for duration of removal (i.e., 0 vs 2 d; 0 vs 4 d, 0 vs 6 d; 0 vs 8 d and 0 vs 16 d). Fisher's Exact test was evaluated on mobility scores 1 and 2. No test was conducted on mobility scores of 3 or 4 because no scores were reported. Simple means and standard deviation of the tissues collected for the 5 animals were calculated.

With `CC(C)(Cc1ccc(Oc2ncccc2C#N)cc1)NC[C@H](O)COc1ccccc1-c1cccs1` [LUB, 2-{4-[2-({(2S)-2-Hydroxy-3-[2-(2-thienyl)phenoxy]propyl}amino)-2-methylpropyl]phenoxy}nicotinonitrile] the “Calculated YG” value (removal duration 0 d) was 3.08, the “Ribeye Area” value (removal duration 0 d) was 91.0 cm^2 and the HCW (removal duration 0 d) was 409 kg. For the same compound, the Marbling (removal duration 0 d) was 482, the Dressing (removal duration 0 d) was 62.7% and the “Calculated YG” value (removal duration 2 d) was 3.20. The “Ribeye Area” value (removal duration 2 d) was 90.3 cm^2, the HCW (removal duration 2 d) was 411 kg and the Marbling (removal duration 2 d) was 491. For the same compound, the Dressing (removal duration 2 d) was 62.7%, the “Calculated YG” value (removal duration 4 d) was 3.21 and the “Ribeye Area” value (removal duration 4 d) was 90.3 cm^2. For the same compound, the HCW (removal duration 4 d) was 413 kg, the Marbling (removal duration 4 d) was 488 and the Dressing (removal duration 4 d) was 62.8%. The “Calculated YG” value (removal duration 6 d) was 3.06, the “Ribeye Area” value (removal duration 6 d) was 91.6 cm^2 and the HCW (removal duration 6 d) was 410 kg. The Marbling (removal duration 6 d) was 483, the Dressing (removal duration 6 d) was 62.9% and the “Calculated YG” value (removal duration 8 d) was 3.14. For the same compound, the “Ribeye Area” value (removal duration 8 d) was 90.3 cm^2, the HCW (removal duration 8 d) was 413 kg and the Marbling (removal duration 8 d) was 483. For the same compound, the Dressing (removal duration 8 d) was 63.0%, the “Calculated YG” value (removal duration 16 d) was 3.18 and the “Ribeye Area” value (removal duration 16 d) was 89.0 cm^2. For the same compound, the Marbling (removal duration 16 d) was 484, the Dressing (removal duration 16 d) was 62.6% and the “Effect of removal duration on any measured carcass parameter” value (lubabegron 3.5 mg/kg DM, removal 0 to 16 d, P>0.05) was “no effect”. For the same compound, the “Calculated yield grade improvement vs non-treated group” value (lubabegron fed for 56 d with a 0 d removal) was 10.5% and the “Effects on BW and HCW of duration of lubabegron removal” value (removal up to 16 d) was “not affected”.
